Tests used:
Experiment in all cases: relative viability (nuclei count vs DMSO), 5 days (fraction); higher = more cells survive
[1] = test system: A549
In short: (§1)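 Relative viability equals treated-well nuclei counts divided by vehicle-well nuclei counts. Counts came from 4× images of lung cancer cell lines grown in 1536-well plates for 5 days after pin-tool dosing on the day after seeding. Dosing used one drug alone or a fixed anchor-drug dose plus five library-drug doses (not always all listed) in √10 steps, and values are medians of duplicate plates.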

[2] = test system: Calu-6
In short: as §1

[3] = test system: EBC-1
In short: as §1

[4] = test system: EMC-BAC-2
In short: as §1

[5] = test system: HCC-366
In short: as §1

[6] = test system: HCC-78
In short: as §1

[7] = test system: IA-LM
In short: as §1

[8] = test system: LCLC-97TM1
In short: as §1

[9] = test system: NCI-H1299
In short: as §1

[10] = test system: NCI-H1395
In short: as §1

[11] = test system: NCI-H1703
In short: as §1

Q: How did the relative viability ([1]; first compound 0.002 µM) turn out when `CCNC(=O)c1noc(-c2cc(C(C)C)c(O)cc2O)c1-c1ccc(CN2CCOCC2)cc1` [Luminespib] + CS(=O)(=O)CCNCc1ccc(-c2ccc3ncnc(Nc4ccc(OCc5cccc(F)c5)c(Cl)c4)c3c2)o1 [Lapatinib] (partner 2 µM) was run?
A: 0.983

Q: And the relative viability ([1]; first compound 0.006325 µM)?
A: 0.903

Q: What about the relative viability ([1]; first compound 0.02 µM) of the same molecule?
A: 0.897

Q: And the relative viability ([1]; first compound 0.06325 µM)?
A: 0.627

Q: What about the relative viability ([1]; first compound 0.2 µM) of the same molecule?
A: 0.0491

Q: What about the relative viability ([2]; first compound 0.002 µM) of the same molecule?
A: 1.11

Q: And the relative viability ([2]; first compound 0.006325 µM)?
A: 0.962

Q: And the relative viability ([2]; first compound 0.02 µM)?
A: 1.38

Q: What about the relative viability ([2]; first compound 0.06325 µM) of the same molecule?
A: 0.166

Q: And the relative viability ([2]; first compound 0.2 µM)?
A: 0.119

Q: What about the relative viability ([3]; first compound 0.002 µM) of the same molecule?
A: 0.204

Q: What about the relative viability ([3]; first compound 0.006325 µM) of the same molecule?
A: 0.223

Q: What about the relative viability ([3]; first compound 0.02 µM) of the same molecule?
A: 0.233

Q: What about the relative viability ([3]; first compound 0.06325 µM) of the same molecule?
A: 0.187

Q: What about the relative viability ([3]; first compound 0.2 µM) of the same molecule?
A: 0.194

Q: And the relative viability ([4]; first compound 0.002 µM)?
A: 0.942

Q: What about the relative viability ([4]; first compound 0.006325 µM) of the same molecule?
A: 0.84

Q: What about the relative viability ([4]; first compound 0.02 µM) of the same molecule?
A: 0.597

Q: And the relative viability ([4]; first compound 0.06325 µM)?
A: 0.853

Q: What about the relative viability ([4]; first compound 0.2 µM) of the same molecule?
A: 0.781

Q: What about the relative viability ([5]; first compound 0.002 µM) of the same molecule?
A: 1.07

Q: What about the relative viability ([5]; first compound 0.006325 µM) of the same molecule?
A: 1.05

Q: What about the relative viability ([5]; first compound 0.02 µM) of the same molecule?
A: 0.13

Q: What about the relative viability ([5]; first compound 0.06325 µM) of the same molecule?
A: 0.0159

Q: What about the relative viability ([5]; first compound 0.2 µM) of the same molecule?
A: 0.0157

Q: What about the relative viability ([6]; first compound 0.002 µM) of the same molecule?
A: 0.572

Q: What about the relative viability ([6]; first compound 0.06325 µM) of the same molecule?
A: 1.32

Q: What about the relative viability ([6]; first compound 0.2 µM) of the same molecule?
A: 1.27

Q: What about the relative viability ([7]; first compound 0.002 µM) of the same molecule?
A: 0.929

Q: What about the relative viability ([7]; first compound 0.006325 µM) of the same molecule?
A: 0.935

Q: And the relative viability ([7]; first compound 0.02 µM)?
A: 0.643

Q: What about the relative viability ([7]; first compound 0.06325 µM) of the same molecule?
A: 0.0552

Q: And the relative viability ([7]; first compound 0.2 µM)?
A: 0.066

Q: And the relative viability ([8]; first compound 0.002 µM)?
A: 1.33

Q: And the relative viability ([8]; first compound 0.006325 µM)?
A: 0.759

Q: What about the relative viability ([8]; first compound 0.02 µM) of the same molecule?
A: 0.318

Q: And the relative viability ([8]; first compound 0.06325 µM)?
A: 0.197

Q: What about the relative viability ([8]; first compound 0.2 µM) of the same molecule?
A: 0.139

Q: What about the relative viability ([9]; first compound 0.002 µM) of the same molecule?
A: 1.04

Q: And the relative viability ([9]; first compound 0.006325 µM)?
A: 0.965

Q: And the relative viability ([9]; first compound 0.02 µM)?
A: 0.989

Q: And the relative viability ([9]; first compound 0.06325 µM)?
A: 0.892

Q: And the relative viability ([9]; first compound 0.2 µM)?
A: 0.219

Q: And the relative viability ([10]; first compound 0.002 µM)?
A: 1.04

Q: And the relative viability ([10]; first compound 0.006325 µM)?
A: 0.996

Q: And the relative viability ([10]; first compound 0.02 µM)?
A: 0.645

Q: And the relative viability ([10]; first compound 0.06325 µM)?
A: 0.336

Q: And the relative viability ([10]; first compound 0.2 µM)?
A: 0.347

Q: And the relative viability ([11]; first compound 0.002 µM)?
A: 1.14

Q: And the relative viability ([11]; first compound 0.006325 µM)?
A: 1.07

Q: And the relative viability ([11]; first compound 0.02 µM)?
A: 0.998

Q: And the relative viability ([11]; first compound 0.06325 µM)?
A: 0.158

Q: What about the relative viability ([11]; first compound 0.2 µM) of the same molecule?
A: 0.16

Q: For `CCNC(=O)c1noc(-c2cc(C(C)C)c(O)cc2O)c1-c1ccc(CN2CCOCC2)cc1` [Luminespib] + CS(=O)(=O)N1CCN(Cc2cc3nc(-c4cccc5[nH]ncc45)nc(N4CCOCC4)c3s2)CC1 [Pictilisib] (partner 1 µM), which relative viability ([1]; first compound 0.002 µM) is on record?
A: 0.536

Q: And the relative viability ([1]; first compound 0.006325 µM)?
A: 0.517

Q: What about the relative viability ([1]; first compound 0.02 µM) of the same molecule?
A: 0.152

Q: What about the relative viability ([1]; first compound 0.06325 µM) of the same molecule?
A: 0.0437

Q: What about the relative viability ([1]; first compound 0.2 µM) of the same molecule?
A: 0.0569

Q: And the relative viability ([2]; first compound 0.002 µM)?
A: 1.04

Q: And the relative viability ([2]; first compound 0.006325 µM)?
A: 0.847

Q: And the relative viability ([2]; first compound 0.02 µM)?
A: 1

Q: What about the relative viability ([2]; first compound 0.06325 µM) of the same molecule?
A: 0.119

Q: What about the relative viability ([2]; first compound 0.2 µM) of the same molecule?
A: 0.112

Q: What about the relative viability ([3]; first compound 0.002 µM) of the same molecule?
A: 0.471

Q: What about the relative viability ([3]; first compound 0.006325 µM) of the same molecule?
A: 0.365

Q: What about the relative viability ([3]; first compound 0.02 µM) of the same molecule?
A: 0.248

Q: What about the relative viability ([3]; first compound 0.06325 µM) of the same molecule?
A: 0.118

Q: And the relative viability ([3]; first compound 0.2 µM)?
A: 0.128

Q: And the relative viability ([4]; first compound 0.002 µM)?
A: 0.54

Q: And the relative viability ([4]; first compound 0.006325 µM)?
A: 0.511

Q: What about the relative viability ([4]; first compound 0.02 µM) of the same molecule?
A: 0.417

Q: And the relative viability ([4]; first compound 0.06325 µM)?
A: 0.573

Q: What about the relative viability ([4]; first compound 0.2 µM) of the same molecule?
A: 0.163

Q: And the relative viability ([5]; first compound 0.002 µM)?
A: 0.159

Q: What about the relative viability ([5]; first compound 0.006325 µM) of the same molecule?
A: 0.156

Q: What about the relative viability ([5]; first compound 0.02 µM) of the same molecule?
A: 0.116

Q: And the relative viability ([5]; first compound 0.06325 µM)?
A: 0.0429

Q: What about the relative viability ([5]; first compound 0.2 µM) of the same molecule?
A: 0.0407

Q: What about the relative viability ([6]; first compound 0.002 µM) of the same molecule?
A: 0.204

Q: And the relative viability ([6]; first compound 0.06325 µM)?
A: 0.267

Q: What about the relative viability ([6]; first compound 0.2 µM) of the same molecule?
A: 0.279

Q: And the relative viability ([7]; first compound 0.002 µM)?
A: 0.324

Q: And the relative viability ([7]; first compound 0.006325 µM)?
A: 0.369

Q: What about the relative viability ([7]; first compound 0.02 µM) of the same molecule?
A: 0.159

Q: And the relative viability ([7]; first compound 0.06325 µM)?
A: 0.0483

Q: What about the relative viability ([7]; first compound 0.2 µM) of the same molecule?
A: 0.0407

Q: What about the relative viability ([8]; first compound 0.002 µM) of the same molecule?
A: 0.17

Q: And the relative viability ([8]; first compound 0.006325 µM)?
A: 0.223

Q: And the relative viability ([8]; first compound 0.02 µM)?
A: 0.113

Q: What about the relative viability ([8]; first compound 0.06325 µM) of the same molecule?
A: 0.103

Q: And the relative viability ([8]; first compound 0.2 µM)?
A: 0.0923

Q: And the relative viability ([9]; first compound 0.002 µM)?
A: 0.874

Q: What about the relative viability ([9]; first compound 0.006325 µM) of the same molecule?
A: 0.698

Q: And the relative viability ([9]; first compound 0.02 µM)?
A: 0.767

Q: And the relative viability ([9]; first compound 0.06325 µM)?
A: 0.0703

Q: And the relative viability ([9]; first compound 0.2 µM)?
A: 0.0666

Q: What about the relative viability ([10]; first compound 0.002 µM) of the same molecule?
A: 0.684

Q: What about the relative viability ([10]; first compound 0.006325 µM) of the same molecule?
A: 0.725

Q: What about the relative viability ([10]; first compound 0.02 µM) of the same molecule?
A: 0.429

Q: And the relative viability ([10]; first compound 0.06325 µM)?
A: 0.326

Q: And the relative viability ([10]; first compound 0.2 µM)?
A: 0.377

Q: What about the relative viability ([11]; first compound 0.002 µM) of the same molecule?
A: 0.251

Q: And the relative viability ([11]; first compound 0.006325 µM)?
A: 0.244

Q: What about the relative viability ([11]; first compound 0.02 µM) of the same molecule?
A: 0.179

Q: And the relative viability ([11]; first compound 0.06325 µM)?
A: 0.179

Q: And the relative viability ([11]; first compound 0.2 µM)?
A: 0.165

Source: the supplement of paper PMC10307832
